In patent publication US8729089B2 (Gilead Sciences, Inc., priority 2006, dated 2014):

How the values were obtained:
[1] = tested on: HCV replicon in human hepatoma Huh-7 cell line; test: Anti-HCV replicon assay (EC50, luciferase); format: cell-based; conditions: Hepatitis C virus, Huh-7, 72 h
In short: (§1)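 Huh-7 cells carrying an HCV replicon (6000/well) exposed to 3-fold serial compound dilutions for 3 days at 37 °C, final DMSO 0.5% where used. EC50 read as replicon luciferase luminescence after cell lysis; CC50 from CellTiter-Glo luminescence after 10 min at room temperature.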

[2] = CC50 assay (CellTiter-Glo) in Huh-7 HCV replicon cells; format: cell-based, human; conditions: human, 3 days incubation, CellTiter-Glo readout
In short: as §1

Structure (SMILES)	EC50 [1] [µM]	CC50 at 3 days [2] [µM]
NS(=O)(=O)c1cccc(CNc2nc(NCC(F)(F)F)c3nc(-c4ccc(F)cc4)ccc3n2)c1 [Example 238, 3-{[6-(4-Fluoro-phenyl)-4-(2,2,2-trifluoro-ethylamino)-pyrido[3,2-d]pyrimidin-2-ylamino]-methyl}-benzenesulfonamide]	< 0.1	< 5
Fc1ccc(-c2ccc3nc(NCc4ccc(N5CCCC5)cc4)nc(NCC(F)(F)F)c3n2)cc1 [Example 239, 6-(4-Fluoro-phenyl)-N2-(4-pyrrolidin-1-yl-benzyl)-N4-(2,2,2-trifluoro-ethyl)-pyrido[3,2-d]pyrimidine-2,4-diamine]	< 0.1	5 to 25
CN1CCN(c2ccc(CNc3nc(NCC(F)(F)F)c4nc(-c5ccc(F)cc5)ccc4n3)cc2)CC1 [Example 240, 6-(4-Fluoro-phenyl)-N2-[4-(4-methyl-piperazin-1-yl)-benzyl]-N4-(2,2,2-trifluoro-ethyl)-pyrido[3,2-d]pyrimidine-2,4-diamine]	< 0.1	< 5
CS(=O)(=O)Nc1ccc(CNc2nc(NCC(F)(F)F)c3nc(-c4ccc(F)cc4)ccc3n2)cc1 [Example 241, N-(4-{[6-(4-Fluoro-phenyl)-4-(2,2,2-trifluoro-ethylamino)-pyrido[3,2-d]pyrimidin-2-ylamino]-methyl}-phenyl)-methanesulfonamide]	< 0.1	5 to 25
CN(C)C(=O)c1ccc(CNc2nc(NCC(F)(F)F)c3nc(-c4ccc(F)cc4)ccc3n2)cc1 [Example 242, 4-{[6-(4-Fluoro-phenyl)-4-(2,2,2-trifluoro-ethylamino)-pyrido[3,2-d]pyrimidin-2-ylamino]-methyl}-N,N-dimethyl-benzamide]	< 0.1	> 25
Fc1ccc(-c2ccc3nc(NCc4ccccn4)nc(NCC(F)(F)F)c3n2)cc1 [Example 243, 6-(4-Fluoro-phenyl)-N2-pyridin-2-ylmethyl-N4-(2,2,2-trifluoro-ethyl)-pyrido[3,2-d]pyrimidine-2,4-diamine]	< 0.1	5 to 25
Fc1ccc(-c2ccc3nc(NCc4cccnc4)nc(NCC(F)(F)F)c3n2)cc1 [Example 244, 6-(4-Fluoro-phenyl)-N2-pyridin-3-ylmethyl-N4-(2,2,2-trifluoro-ethyl)-pyrido[3,2-d]pyrimidine-2,4-diamine]	< 0.1	5 to 25
Fc1ccc(-c2ccc3nc(NCc4ccc(-c5csnn5)cc4)nc(NCC(F)(F)F)c3n2)cc1 [Example 245, 6-(4-Fluoro-phenyl)-N2-(4-[1,2,3]thiadiazol-4-yl-benzyl)-N4-(2,2,2-trifluoro-ethyl)-pyrido[3,2-d]pyrimidine-2,4-diamine]	< 0.1	> 25
NS(=O)(=O)c1ccc(CNc2nc(NCC(F)(F)F)c3nc(-c4ccc(F)cc4)ccc3n2)c(F)c1 [Example 246, 3-Fluoro-4-{[6-(4-fluoro-phenyl)-4-(2,2,2-trifluoro-ethylamino)-pyrido[3,2-d]pyrimidin-2-ylamino]-methyl}-benzenesulfonamide]	< 0.1	5 to 25
Fc1ccc(-c2ccc3nc(NCc4nnco4)nc(NCC(F)(F)F)c3n2)cc1 [Example 247, 6-(4-Fluoro-phenyl)-N2-[1,3,4]oxadiazol-2-ylmethyl-N4-(2,2,2-trifluoro-ethyl)-pyrido[3,2-d]pyrimidine-2,4-diamine]	< 0.1	5 to 25
Fc1ccc(-c2ccc3nc(NCc4cncs4)nc(NCC(F)(F)F)c3n2)cc1 [Example 248, 6-(4-Fluoro-phenyl)-N2-thiazol-5-ylmethyl-N4-(2,2,2-trifluoro-ethyl)-pyrido[3,2-d]pyrimidine-2,4-diamine]	< 0.1	5 to 25
CC(Nc1nc(NCC(F)(F)F)c2nc(-c3ccc(F)cc3)ccc2n1)c1ccc(S(N)(=O)=O)cc1 (centres unmarked) [Example 249, 4-{1-[6-(4-Fluoro-phenyl)-4-(2,2,2-trifluoro-ethylamino)-pyrido[3,2-d]pyrimidin-2-ylamino]-ethyl}-benzenesulfonamide]	< 0.1	< 5
Fc1ccc(-c2ccc3nc(NCc4ccc(-n5cncn5)cc4)nc(NCC(F)(F)F)c3n2)cc1 [Example 251, 6-(4-Fluoro-phenyl)-N2-(4-[1,2,4]triazol-1-yl-benzyl)-N4-(2,2,2-trifluoro-ethyl)-pyrido[3,2-d]pyrimidine-2,4-diamine]	< 0.1	> 25
COCCNc1nc(NCC(F)(F)F)c2nc(-c3ccc(F)cc3)ccc2n1 [Example 252, 6-(4-Fluoro-phenyl)-N2-(2-methoxy-ethyl)-N4-(2,2,2-trifluoro-ethyl)-pyrido[3,2-d]pyrimidine-2,4-diamine]	< 0.1	5 to 25
Fc1ccc(-c2ccc3nc(NCc4ncco4)nc(NCC(F)(F)F)c3n2)cc1 [Example 253, 6-(4-Fluoro-phenyl)-N2-oxazol-2-ylmethyl-N4-(2,2,2-trifluoro-ethyl)-pyrido[3,2-d]pyrimidine-2,4-diamine]	< 0.1	< 5
Fc1ccc(-c2ccc3nc(NCCn4cncn4)nc(NCC(F)(F)F)c3n2)cc1 [Example 254, 6-(4-Fluoro-phenyl)-N2-(2-[1,2,4]triazol-1-yl-ethyl)-N4-(2,2,2-trifluoro-ethyl)-pyrido[3,2-d]pyrimidine-2,4-diamine]	< 0.1	> 25
CC(Nc1nc(NCC(F)(F)F)c2nc(-c3ccc(F)cc3)ccc2n1)c1ccc(-n2cncn2)cc1 (centres unmarked) [Example 255, 6-(4-Fluoro-phenyl)-N2-[1-(4-[1,2,4]triazol-1-yl-phenyl)-ethyl]-N4-(2,2,2-trifluoro-ethyl)-pyrido[3,2-d]pyrimidine-2,4-diamine]	< 0.1	5 to 25
CCOP(=O)(CCNc1nc(NCC(F)(F)F)c2nc(-c3ccc(F)cc3)ccc2n1)OCC [Example 256, {2-[6-(4-Fluoro-phenyl)-4-(2,2,2-trifluoro-ethylamino)-pyrido[3,2-d]pyrimidin-2-ylamino]-ethyl}-phosphonic acid diethyl ester]	< 0.1	5 to 25
Fc1ccc(-c2ccc3nc(NCCN4CCOCC4)nc(NCC(F)(F)F)c3n2)cc1 [Example 258, 6-(4-Fluoro-phenyl)-N2-(2-morpholin-4-yl-ethyl)-N4-(2,2,2-trifluoro-ethyl)-pyrido[3,2-d]pyrimidine-2,4-diamine]	< 0.1	< 5
NS(=O)(=O)CCNc1nc(NCC(F)(F)F)c2nc(-c3ccc(F)cc3)ccc2n1 [Example 259, 2-[6-(4-Fluoro-phenyl)-4-(2,2,2-trifluoro-ethylamino)-pyrido[3,2-d]pyrimidin-2-ylamino]-ethanesulfonic acid amide]	< 0.1	5 to 25
NC(=O)CCNc1nc(NCC(F)(F)F)c2nc(-c3ccc(F)cc3)ccc2n1 [Example 260, 3-[6-(4-Fluoro-phenyl)-4-(2,2,2-trifluoro-ethylamino)-pyrido[3,2-d]pyrimidin-2-ylamino]-propionamide]	< 0.1	5 to 25
NC(=O)c1ccc(CNc2nc(NCC(F)(F)F)c3nc(-c4ccc(F)cc4)ccc3n2)cc1 [Example 261, 4-{[6-(4-Fluoro-phenyl)-4-(2,2,2-trifluoro-ethylamino)-pyrido[3,2-d]pyrimidin-2-ylamino]-methyl}-benzamide]	< 0.1	< 5
